{"source": "ChEMBL document CHEMBL1201862", "about": "“PubChem BioAssay data set” (2004)", "key": {"[1]": {"target": "T1, High affinity choline transporter 1 (Homo sapiens, UniProt Q9GZV3)", "T1 sequence (Q9GZV3 whole entry)": "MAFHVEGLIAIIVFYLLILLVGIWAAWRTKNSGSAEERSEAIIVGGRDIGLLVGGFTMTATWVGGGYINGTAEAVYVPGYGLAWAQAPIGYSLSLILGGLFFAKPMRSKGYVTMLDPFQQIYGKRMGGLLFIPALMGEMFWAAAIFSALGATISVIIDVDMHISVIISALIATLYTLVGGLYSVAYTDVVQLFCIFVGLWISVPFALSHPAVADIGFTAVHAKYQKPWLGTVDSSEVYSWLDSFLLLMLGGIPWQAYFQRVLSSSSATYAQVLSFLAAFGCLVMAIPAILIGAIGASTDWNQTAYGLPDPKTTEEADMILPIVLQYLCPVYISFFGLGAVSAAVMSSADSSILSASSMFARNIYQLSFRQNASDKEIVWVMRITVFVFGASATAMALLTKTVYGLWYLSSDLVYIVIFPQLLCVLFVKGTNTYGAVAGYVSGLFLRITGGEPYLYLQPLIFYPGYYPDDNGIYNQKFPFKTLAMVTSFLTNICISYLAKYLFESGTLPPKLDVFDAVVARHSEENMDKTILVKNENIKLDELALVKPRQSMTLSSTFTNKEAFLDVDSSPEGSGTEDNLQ", "experiment": "human choline transporter blockers, potency – cell-based, 5-point CRC, membrane potential dye, dose response (AID 504840)", "assay_type": "functional"}, "[2]": {"experiment": "A cytotoxicity screen of small molecule inhibitors of the PhoP region in Salmonella typhi identified in the primary screen. [Related pubchem assays: 1850, 1864, 1985 ]", "assay_type": "functional"}, "[3]": {"tested_on": "HeLa", "experiment": "viability loss in HeLa cells – cell-based, 24 h, cherry-picked samples, cytotoxicity control, dose response (AID 504726)", "assay_type": "functional", "conditions": "Homo sapiens"}, "[4]": {"experiment": "Luminescence Cell-Based Dose Response to Identify Activators of 5'UTR Stem-Loop Driven Prion Protein mRNA Translation in H4-C Neuroglioblastoma Cells. [Related pubchem assays: 1829 (Project Summary), 1814 (Primary HTS)]", "assay_type": "functional"}, "[5]": {"experiment": "Luminescence Cell-Based Dose Response HTS to Identify Activators of Luciferase Translation or Activity in H4 […] Cells. [Related pubchem assays: 1829 (Project Summary), 1814 (Primary HTS)]", "assay_type": "functional"}, "[6]": {"experiment": "Luminescence Cell-Based Dose Response to Identify Activators of Luciferase Translation or Activity in H4-C Neuroglioblastoma Cells. [Related pubchem assays: 1829 (Project Summary), 1814 (Primary HTS)]", "assay_type": "functional"}, "[7]": {"experiment": "Luminescence Cell-Based Dose Confirmation to Identify Activators of 5'UTR Stem-Loop Driven Alpha-Synuclein mRNA Translation in H4 Neuroglioblastoma Cells. [Related pubchem assays: 1829 (Project Summary), 1814 (Primary HTS)]", "assay_type": "functional"}, "[8]": {"experiment": "viability loss in HeLa cells – cytotoxicity control for MgcRacGAP inhibitor project, dose response (AID 624300)", "assay_type": "functional"}, "[9]": {"target": "T2, Rac GTPase-activating protein 1 (Homo sapiens, UniProt Q9H0H5)", "T2 sequence (Q9H0H5 whole entry)": "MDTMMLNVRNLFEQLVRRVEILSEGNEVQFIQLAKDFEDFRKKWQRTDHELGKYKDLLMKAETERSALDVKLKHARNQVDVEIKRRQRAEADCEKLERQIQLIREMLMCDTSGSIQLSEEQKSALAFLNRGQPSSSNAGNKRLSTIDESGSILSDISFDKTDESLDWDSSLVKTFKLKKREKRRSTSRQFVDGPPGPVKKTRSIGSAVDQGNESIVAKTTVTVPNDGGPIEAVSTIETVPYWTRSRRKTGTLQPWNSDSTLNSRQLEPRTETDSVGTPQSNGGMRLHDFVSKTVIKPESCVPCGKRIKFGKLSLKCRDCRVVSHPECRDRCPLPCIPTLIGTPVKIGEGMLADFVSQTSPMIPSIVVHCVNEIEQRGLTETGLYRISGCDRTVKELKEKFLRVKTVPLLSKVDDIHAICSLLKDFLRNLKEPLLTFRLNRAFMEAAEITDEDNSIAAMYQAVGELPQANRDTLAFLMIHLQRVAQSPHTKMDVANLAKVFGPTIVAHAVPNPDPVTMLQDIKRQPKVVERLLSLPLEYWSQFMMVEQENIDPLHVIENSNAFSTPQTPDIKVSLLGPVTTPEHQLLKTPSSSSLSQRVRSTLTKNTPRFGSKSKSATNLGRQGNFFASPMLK", "experiment": "blockers of MgcRacGAP-driven Rac1 GTP hydrolysis – biochemical, ADP Hunter fluorescence, primary and confirmatory, confirmation (AID 624330)", "assay_type": "functional"}, "[10]": {"target": "T3, Cytochrome P450 3A4 (Homo sapiens, UniProt P08684)", "T3 sequence (P08684 whole entry)": "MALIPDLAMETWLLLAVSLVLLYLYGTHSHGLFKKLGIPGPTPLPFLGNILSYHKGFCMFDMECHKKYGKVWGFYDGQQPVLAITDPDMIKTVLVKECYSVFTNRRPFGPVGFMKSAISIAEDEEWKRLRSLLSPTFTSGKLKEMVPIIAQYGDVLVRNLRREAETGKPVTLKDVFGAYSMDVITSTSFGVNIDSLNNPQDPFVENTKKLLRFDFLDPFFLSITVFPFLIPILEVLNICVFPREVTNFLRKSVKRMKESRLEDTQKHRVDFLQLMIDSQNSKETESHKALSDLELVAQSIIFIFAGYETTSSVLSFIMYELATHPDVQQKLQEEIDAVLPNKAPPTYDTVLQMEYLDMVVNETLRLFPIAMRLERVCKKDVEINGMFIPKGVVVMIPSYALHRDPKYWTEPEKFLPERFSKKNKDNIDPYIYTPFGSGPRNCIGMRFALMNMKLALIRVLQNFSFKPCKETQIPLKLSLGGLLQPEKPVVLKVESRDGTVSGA", "conditions": "Potency"}, "[11]": {"target": "T4, Mannose-6-phosphate isomerase (Homo sapiens, UniProt P34949)", "T4 sequence (P34949 whole entry)": "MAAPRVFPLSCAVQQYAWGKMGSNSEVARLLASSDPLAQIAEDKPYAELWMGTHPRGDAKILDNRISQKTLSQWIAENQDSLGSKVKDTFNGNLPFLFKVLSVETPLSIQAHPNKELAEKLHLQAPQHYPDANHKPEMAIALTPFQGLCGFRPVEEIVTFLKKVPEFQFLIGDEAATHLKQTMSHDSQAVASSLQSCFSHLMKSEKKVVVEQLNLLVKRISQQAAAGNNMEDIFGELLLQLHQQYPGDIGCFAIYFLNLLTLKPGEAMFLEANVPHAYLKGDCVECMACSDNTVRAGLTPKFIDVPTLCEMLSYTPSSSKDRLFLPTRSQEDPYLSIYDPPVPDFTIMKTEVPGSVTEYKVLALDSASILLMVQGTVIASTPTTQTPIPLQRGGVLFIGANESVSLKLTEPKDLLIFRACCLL", "experiment": "phosphomannose isomerase inhibition – biochemical, fluorescence intensity, confirmation (AID 1535)"}, "[12]": {"target": "T5, Bcl-2-like protein 10 (Homo sapiens, UniProt Q9HD36)", "T5 sequence (Q9HD36 whole entry)": "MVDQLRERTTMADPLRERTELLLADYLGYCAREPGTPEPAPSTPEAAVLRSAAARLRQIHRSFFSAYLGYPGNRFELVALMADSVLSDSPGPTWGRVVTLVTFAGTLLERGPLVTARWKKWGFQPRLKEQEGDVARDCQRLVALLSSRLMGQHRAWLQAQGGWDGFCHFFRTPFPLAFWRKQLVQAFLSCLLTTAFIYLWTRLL", "experiment": "Bcl-B/TR3 peptide binding disruption – biochemical, fluorescence polarization, FITC-TR3 peptide, selectivity assay for Bfl-1 inhibitor project, primary screen (AID 748);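 note: fluorescence polarization from a fluorescein-labelled TR3 peptide binding purified Bcl-B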"}, "[13]": {"target": "T6, Estrogen receptor beta (Homo sapiens, UniProt Q92731)", "T6 sequence (Q92731 whole entry)": "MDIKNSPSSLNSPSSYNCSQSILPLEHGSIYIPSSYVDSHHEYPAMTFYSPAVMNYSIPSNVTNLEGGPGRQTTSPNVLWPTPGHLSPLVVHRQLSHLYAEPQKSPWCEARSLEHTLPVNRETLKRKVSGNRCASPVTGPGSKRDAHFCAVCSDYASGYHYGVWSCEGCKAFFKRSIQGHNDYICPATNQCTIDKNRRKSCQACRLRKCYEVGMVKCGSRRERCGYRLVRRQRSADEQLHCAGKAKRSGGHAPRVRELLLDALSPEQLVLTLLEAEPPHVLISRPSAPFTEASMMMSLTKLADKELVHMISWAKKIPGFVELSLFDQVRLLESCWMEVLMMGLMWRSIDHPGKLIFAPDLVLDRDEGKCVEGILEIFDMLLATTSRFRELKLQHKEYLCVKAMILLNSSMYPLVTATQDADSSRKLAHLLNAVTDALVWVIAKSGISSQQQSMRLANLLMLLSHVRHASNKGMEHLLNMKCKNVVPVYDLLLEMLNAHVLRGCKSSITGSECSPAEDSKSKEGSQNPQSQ"}, "[14]": {"target": "T6, Estrogen receptor beta", "experiment": "blockers of SRC-3 recruitment to ERβ – biochemical, ELISA, streptavidin-HRP readout, orthogonal assay, confirmation (AID 1060)"}, "[15]": {"target": "Large T antigen (Simian virus 40, UniProt P03070)", "sequence (P03070 whole entry)": "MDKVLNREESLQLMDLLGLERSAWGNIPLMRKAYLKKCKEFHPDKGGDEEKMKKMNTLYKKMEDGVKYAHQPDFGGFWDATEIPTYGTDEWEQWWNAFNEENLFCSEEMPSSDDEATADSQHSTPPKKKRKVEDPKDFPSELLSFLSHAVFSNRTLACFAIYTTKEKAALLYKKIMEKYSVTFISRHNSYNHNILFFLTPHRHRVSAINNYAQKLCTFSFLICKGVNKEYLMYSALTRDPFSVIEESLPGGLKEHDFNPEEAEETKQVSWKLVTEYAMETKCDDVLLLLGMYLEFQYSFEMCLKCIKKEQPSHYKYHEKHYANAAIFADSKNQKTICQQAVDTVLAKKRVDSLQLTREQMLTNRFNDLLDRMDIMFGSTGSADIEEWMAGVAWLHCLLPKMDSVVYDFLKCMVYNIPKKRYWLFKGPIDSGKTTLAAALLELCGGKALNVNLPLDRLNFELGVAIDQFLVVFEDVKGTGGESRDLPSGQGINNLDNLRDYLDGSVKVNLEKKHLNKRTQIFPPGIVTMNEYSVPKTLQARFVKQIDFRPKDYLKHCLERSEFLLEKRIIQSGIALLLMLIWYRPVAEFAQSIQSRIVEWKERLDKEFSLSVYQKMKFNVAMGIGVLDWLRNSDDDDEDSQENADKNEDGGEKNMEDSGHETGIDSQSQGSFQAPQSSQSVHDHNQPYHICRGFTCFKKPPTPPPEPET", "assay_type": "functional, Betapolyomavirus macacae"}, "[16]": {"target": "Cytochrome P450 2D6 (Homo sapiens, UniProt P10635)", "sequence (P10635 whole entry)": "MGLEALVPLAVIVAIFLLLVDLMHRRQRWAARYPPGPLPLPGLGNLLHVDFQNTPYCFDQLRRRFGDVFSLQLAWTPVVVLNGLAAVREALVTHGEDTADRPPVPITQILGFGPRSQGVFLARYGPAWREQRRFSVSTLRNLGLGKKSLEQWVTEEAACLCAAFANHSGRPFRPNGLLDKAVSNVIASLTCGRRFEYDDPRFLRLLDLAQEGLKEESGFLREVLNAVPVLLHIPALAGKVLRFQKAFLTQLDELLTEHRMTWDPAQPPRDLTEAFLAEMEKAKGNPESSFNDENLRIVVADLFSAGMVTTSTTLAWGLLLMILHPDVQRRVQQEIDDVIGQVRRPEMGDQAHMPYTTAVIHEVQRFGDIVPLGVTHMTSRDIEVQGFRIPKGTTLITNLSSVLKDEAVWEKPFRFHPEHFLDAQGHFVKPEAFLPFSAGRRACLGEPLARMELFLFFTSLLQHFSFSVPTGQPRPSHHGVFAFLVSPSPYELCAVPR"}, "[17]": {"target": "T7, Cytochrome P450 1A2 (Homo sapiens, UniProt P05177)", "T7 sequence (P05177 whole entry)": "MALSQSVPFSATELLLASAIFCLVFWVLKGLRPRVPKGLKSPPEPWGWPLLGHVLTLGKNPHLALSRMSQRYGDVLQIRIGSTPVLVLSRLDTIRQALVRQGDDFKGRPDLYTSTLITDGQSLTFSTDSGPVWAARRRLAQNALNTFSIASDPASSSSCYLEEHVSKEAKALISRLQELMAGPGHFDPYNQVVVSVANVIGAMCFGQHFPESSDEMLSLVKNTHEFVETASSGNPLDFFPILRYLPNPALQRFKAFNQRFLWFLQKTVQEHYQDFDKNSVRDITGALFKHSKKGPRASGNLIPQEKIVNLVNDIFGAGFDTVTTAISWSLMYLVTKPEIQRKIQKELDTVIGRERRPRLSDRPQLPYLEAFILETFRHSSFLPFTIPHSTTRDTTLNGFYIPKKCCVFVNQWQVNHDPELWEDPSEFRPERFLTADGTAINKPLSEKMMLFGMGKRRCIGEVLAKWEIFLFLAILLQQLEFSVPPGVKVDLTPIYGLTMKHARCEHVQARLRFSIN"}, "[18]": {"target": "T3, Cytochrome P450 3A4"}, "[19]": {"target": "Troponin, cardiac muscle (Homo sapiens, UniProt P19429+P45379+P63316)", "experiment": "Fluorescence-based biochemical high throughput dose response assay for activators of the calcium sensitivity of cardiac Regulated Thin Filaments (RTF). [Related pubchem assays (depositor defined):AID493008, AID493018, AID504382, AID504383]", "assay_type": "protein-complex assay"}}, "note": "Activity calls are given as the source filed them."}
{"smiles": "CCN(Cc1ccccc1)S(=O)(=O)c1cc(C(=O)NC2CCCCCC2)ccc1OC", "values": [{"measurement": "IC50", "setting": "[1]", "result": "0.575 µM (active)"}]}
{"smiles": "CCc1ccc(NC2=NCCCS2)cc1", "values": [{"measurement": "EC50", "setting": "[2]", "result": "> 50 µM (active)"}]}
{"smiles": "CC(C)N(C(S)=Nc1cccnc1)c1ccccc1", "values": [{"measurement": "AC50", "setting": "[3]", "result": "> 350 µM (inactive)"}]}
{"smiles": "CC(C)[C@H](NC(=O)c1ccccc1F)C(=O)NC1CCCCCCC1", "values": [{"measurement": "AC50", "setting": "[3]", "result": "135 µM (active)"}]}
{"smiles": "CN(C)c1ccc(NC(=O)c2sc(SCC(=O)Nc3nccs3)nc2N)cc1", "values": [{"measurement": "EC50", "setting": "[4]", "result": "1.28 µM (active)"}, {"measurement": "EC50", "setting": "[5]", "result": "< 0.1 µM (active)"}, {"measurement": "EC50", "setting": "[6]", "result": "0.575 µM (active)"}, {"measurement": "EC50", "setting": "[7]", "result": "0.236 µM (active)"}, {"measurement": "CC50", "setting": "[8]", "result": "100 µM (active)"}, {"measurement": "IC50", "setting": "[9]", "result": "107 µM (active)"}]}
{"smiles": "O=c1c(O)c(-c2ccccc2)oc2cc(O)ccc12", "note": "[3,7-DIHYDROXYFLAVONE]", "values": [{"measurement": "AC50", "setting": "[10]", "result": "39.8 µM (inconclusive)"}]}
{"smiles": "Cc1cnc(/N=c2\\ssnc2Cl)cn1", "values": [{"measurement": "IC50", "setting": "[11]", "result": "> 100 µM (inactive)"}]}
{"smiles": "CCOc1ccc(C(=O)OCC(=O)NCc2ccco2)cc1OCC", "values": [{"measurement": "IC50", "setting": "[12]", "result": "> 100 µM (inactive)"}, {"measurement": "IC50", "setting": "[13]", "result": "> 50 µM (not active)"}, {"measurement": "IC50", "setting": "[14]", "result": "0.113 µM (not active)"}]}
{"smiles": "CC(=O)NCCc1c[nH]c2ccc(O)cc12", "note": "[ACETYLSEROTONIN]", "values": [{"measurement": "IC50", "setting": "[15]", "result": "21.7 µM (active)"}, {"measurement": "AC50", "setting": "[10]", "result": "25.1 µM (inconclusive)"}, {"measurement": "AC50", "setting": "[16]", "result": "15.8 µM (inconclusive)"}, {"measurement": "AC50", "setting": "[17]", "result": "15.8 µM (inconclusive)"}, {"measurement": "AC50", "setting": "[18]", "result": "7.94 µM (inconclusive)"}]}
{"smiles": "CNS(=O)(=O)c1ccc(N/C=C2/C(=O)NC(=O)N(c3ccccc3)C2=O)cc1", "values": [{"measurement": "EC50", "setting": "[19]", "result": "> 71.5 µM (inactive)"}]}
{"smiles": "O=C(NCc1nnc(SCC(=O)N2CCCCCC2)o1)c1ccco1", "values": [{"measurement": "EC50", "setting": "[19]", "result": "> 71.5 µM (inactive)"}]}
